biological target: Angiotensin-converting enzyme (Homo sapiens, UniProt P12821); assay: Inhibition of ACE by fluorometric assay
Sequence (P12821 whole entry): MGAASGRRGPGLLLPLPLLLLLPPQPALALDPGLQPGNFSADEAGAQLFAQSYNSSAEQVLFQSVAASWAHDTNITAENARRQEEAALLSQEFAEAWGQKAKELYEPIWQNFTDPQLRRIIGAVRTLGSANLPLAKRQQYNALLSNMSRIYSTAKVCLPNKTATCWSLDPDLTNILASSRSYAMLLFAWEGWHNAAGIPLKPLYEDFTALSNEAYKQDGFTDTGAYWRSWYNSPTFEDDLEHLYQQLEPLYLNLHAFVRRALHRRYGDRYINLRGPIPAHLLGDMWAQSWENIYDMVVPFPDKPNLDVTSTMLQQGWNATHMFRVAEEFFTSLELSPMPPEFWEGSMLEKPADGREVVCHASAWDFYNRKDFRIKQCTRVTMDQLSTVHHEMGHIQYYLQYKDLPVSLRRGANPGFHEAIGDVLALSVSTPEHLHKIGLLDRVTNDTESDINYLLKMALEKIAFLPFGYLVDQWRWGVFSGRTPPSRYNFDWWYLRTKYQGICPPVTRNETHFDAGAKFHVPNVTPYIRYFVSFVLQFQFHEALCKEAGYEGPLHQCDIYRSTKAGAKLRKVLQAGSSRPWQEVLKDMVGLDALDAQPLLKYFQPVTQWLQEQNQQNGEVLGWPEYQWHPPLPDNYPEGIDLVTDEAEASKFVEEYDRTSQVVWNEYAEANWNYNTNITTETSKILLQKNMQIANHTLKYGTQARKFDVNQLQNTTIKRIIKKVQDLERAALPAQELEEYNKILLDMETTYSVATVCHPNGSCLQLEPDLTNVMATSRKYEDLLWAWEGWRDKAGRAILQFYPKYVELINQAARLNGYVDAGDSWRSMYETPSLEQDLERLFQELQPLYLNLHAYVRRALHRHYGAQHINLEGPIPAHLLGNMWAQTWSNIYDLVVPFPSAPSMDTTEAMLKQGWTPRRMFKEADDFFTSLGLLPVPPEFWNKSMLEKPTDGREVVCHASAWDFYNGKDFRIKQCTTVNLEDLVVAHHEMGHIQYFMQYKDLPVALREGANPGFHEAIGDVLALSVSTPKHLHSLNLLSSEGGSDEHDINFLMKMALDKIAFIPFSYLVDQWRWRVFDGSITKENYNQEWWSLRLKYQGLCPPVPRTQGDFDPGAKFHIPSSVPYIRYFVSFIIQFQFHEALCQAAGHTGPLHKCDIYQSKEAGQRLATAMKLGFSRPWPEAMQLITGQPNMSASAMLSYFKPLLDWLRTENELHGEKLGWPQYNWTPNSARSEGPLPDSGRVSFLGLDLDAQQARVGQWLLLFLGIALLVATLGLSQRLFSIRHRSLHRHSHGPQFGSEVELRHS

Compound	IC50 [mM]
O=C(O[C@@H]1O[C@@H]2COC(=O)c3cc(O)c(O)c(O)c3-c3c(cc(O)c(O)c3O)C(=O)O[C@H]([C@H]1O)[C@@H]2O)c1cc(O)c(O)c(O)c1 [CORILAGIN]	3.7
O=c1oc2c(O)c(O)cc3c(=O)oc4c(O)c(O)cc1c4c23 [ELLAGIC ACID]	5
O=C(O)c1cc(O)c(O)c(O)c1 [GALLIC ACID]	7.7
O=C1O[C@H]2[C@@H]3OC(=O)c4cc(O)c(O)c(O)c4-c4c(cc(O)c(O)c4O)C(=O)OC[C@H]2O[C@@H](OC(=O)c2cc(O)c(O)c(O)c2)[C@@H]3OC(=O)c2cc(O)c(O)c3c2[C@@H]2C1=CC(=O)[C@](O)(O3)C2(O)O [GERANIIN]	0.4

From ChEMBL document CHEMBL1150754, “Chemical and pharmaceutical studies on medicinal plants in Paraguay. Geraniin, an angiotensin-converting enzyme inhibitor from "paraparai mi," Phyllanthus niruri” (J Nat Prod, 1988)
